Reference: the supplement of paper PMC10307832

Columns and labels:
Assay in all cases: relative viability (nuclei count vs DMSO), 5 days (fraction); higher = more cells survive
[1] = tested on: A-427
In short: (§1)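 For relative viability, nuclei counts in treated wells were divided by those in vehicle wells. Lung cancer cell lines had been pin-tool dosed in 1536-well plates the day after seeding and cultured for 5 days, then fixed and stained in one step (final 0.05% Triton X-100, 1% formaldehyde, 1 ug/ml Hoechst) and imaged at 4×. Doses were one drug alone or a fixed anchor-drug dose plus five library-drug doses (not always all listed) in √10 steps, and values are duplicate-plate medians.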

[2] = tested on: COR-L 105
In short: as §1

[3] = tested on: EKVX
In short: as §1

[4] = tested on: EMC-BAC-2
In short: as §1

[5] = tested on: H3255
In short: as §1

[6] = tested on: HCC-366
In short: as §1

[7] = tested on: LK-2
In short: as §1

[8] = tested on: LOU-NH91
In short: as §1

[9] = tested on: NCI-H1563
In short: as §1

[10] = tested on: NCI-H1666
In short: as §1

[11] = tested on: NCI-H1734
In short: as §1

[12] = tested on: NCI-H1755
In short: as §1

[13] = tested on: NCI-H1792
In short: as §1

[14] = tested on: NCI-H1975
In short: as §1

[15] = tested on: NCI-H2170
In short: as §1

[16] = tested on: NCI-H23
In short: as §1

[17] = tested on: NCI-H520
In short: as §1

[18] = tested on: NCI-H596
In short: as §1

[19] = tested on: PC-3 [JPC-3]
In short: as §1

[20] = tested on: SK-MES-1
In short: as §1

[21] = tested on: NCI-H441
In short: as §1

## C=C1C(=O)O[C@@H](CCCCCCCC)[C@@H]1C(=O)O [C-75] + CS(=O)(=O)CCNCc1ccc(-c2ccc3ncnc(Nc4ccc(OCc5cccc(F)c5)c(Cl)c4)c3c2)o1 [Lapatinib] (partner 2 µM)
[1]; first compound 0.08 µM
  relative viability: 1.01
[1]; first compound 0.253 µM
  relative viability: 1.07
[1]; first compound 0.8 µM
  relative viability: 1.02
[1]; first compound 2.53 µM
  relative viability: 0.997
[1]; first compound 8 µM
  relative viability: 1.01
[2]; first compound 0.08 µM
  relative viability: 0.299
[2]; first compound 0.253 µM
  relative viability: 0.315
[2]; first compound 0.8 µM
  relative viability: 0.374
[2]; first compound 2.53 µM
  relative viability: 0.309
[2]; first compound 8 µM
  relative viability: 0.414
[3]; first compound 0.08 µM
  relative viability: 0.266
[3]; first compound 0.253 µM
  relative viability: 0.211
[3]; first compound 0.8 µM
  relative viability: 0.224
[3]; first compound 2.53 µM
  relative viability: 0.184
[3]; first compound 8 µM
  relative viability: 0.214
[4]; first compound 0.08 µM
  relative viability: 0.897
[4]; first compound 0.253 µM
  relative viability: 0.85
[4]; first compound 0.8 µM
  relative viability: 0.882
[4]; first compound 2.53 µM
  relative viability: 0.721
[4]; first compound 8 µM
  relative viability: 0.998
[5]; first compound 0.08 µM
  relative viability: 0.277
[5]; first compound 0.253 µM
  relative viability: 0.314
[5]; first compound 0.8 µM
  relative viability: 0.254
[5]; first compound 2.53 µM
  relative viability: 0.21
[5]; first compound 8 µM
  relative viability: 0.274
[6]; first compound 0.08 µM
  relative viability: 1.04
[6]; first compound 0.253 µM
  relative viability: 1.19
[6]; first compound 0.8 µM
  relative viability: 1
[6]; first compound 8 µM
  relative viability: 0.872
[7]; first compound 0.08 µM
  relative viability: 1.03
[7]; first compound 0.253 µM
  relative viability: 1.15
[7]; first compound 0.8 µM
  relative viability: 1.08
[7]; first compound 2.53 µM
  relative viability: 0.744
[7]; first compound 8 µM
  relative viability: 0.622
[8]; first compound 0.08 µM
  relative viability: 0.821
[8]; first compound 0.253 µM
  relative viability: 0.833
[8]; first compound 0.8 µM
  relative viability: 0.657
[8]; first compound 2.53 µM
  relative viability: 0.533
[8]; first compound 8 µM
  relative viability: 0.716
[9]; first compound 0.08 µM
  relative viability: 0.886
[9]; first compound 0.253 µM
  relative viability: 0.979
[9]; first compound 0.8 µM
  relative viability: 0.881
[9]; first compound 2.53 µM
  relative viability: 0.998
[9]; first compound 8 µM
  relative viability: 1
[10]; first compound 0.08 µM
  relative viability: 0.668
[10]; first compound 0.253 µM
  relative viability: 0.872
[10]; first compound 0.8 µM
  relative viability: 0.54
[10]; first compound 2.53 µM
  relative viability: 0.549
[10]; first compound 8 µM
  relative viability: 0.471
[11]; first compound 0.08 µM
  relative viability: 0.981
[11]; first compound 0.253 µM
  relative viability: 1.13
[11]; first compound 0.8 µM
  relative viability: 1.02
[11]; first compound 2.53 µM
  relative viability: 0.362
[11]; first compound 8 µM
  relative viability: 0.908
[12]; first compound 0.08 µM
  relative viability: 1.01
[12]; first compound 0.253 µM
  relative viability: 0.946
[12]; first compound 0.8 µM
  relative viability: 0.958
[12]; first compound 2.53 µM
  relative viability: 0.743
[12]; first compound 8 µM
  relative viability: 1.06
[13]; first compound 0.08 µM
  relative viability: 0.865
[13]; first compound 0.253 µM
  relative viability: 0.835
[13]; first compound 0.8 µM
  relative viability: 0.675
[13]; first compound 2.53 µM
  relative viability: 0.68
[13]; first compound 8 µM
  relative viability: 0.798
[14]; first compound 0.08 µM
  relative viability: 0.839
[14]; first compound 0.253 µM
  relative viability: 1.04
[14]; first compound 0.8 µM
  relative viability: 0.76
[14]; first compound 2.53 µM
  relative viability: 0.879
[14]; first compound 8 µM
  relative viability: 0.895
[15]; first compound 0.08 µM
  relative viability: 0.269
[15]; first compound 0.253 µM
  relative viability: 0.276
[15]; first compound 0.8 µM
  relative viability: 0.255
[15]; first compound 2.53 µM
  relative viability: 0.216
[15]; first compound 8 µM
  relative viability: 0.276
[16]; first compound 0.08 µM
  relative viability: 1.16
[16]; first compound 0.253 µM
  relative viability: 1.34
[16]; first compound 0.8 µM
  relative viability: 0.83
[16]; first compound 2.53 µM
  relative viability: 0.851
[16]; first compound 8 µM
  relative viability: 0.546
[17]; first compound 0.08 µM
  relative viability: 0.835
[17]; first compound 0.253 µM
  relative viability: 0.964
[17]; first compound 0.8 µM
  relative viability: 0.703
[17]; first compound 2.53 µM
  relative viability: 0.734
[17]; first compound 8 µM
  relative viability: 0.598
[18]; first compound 0.08 µM
  relative viability: 1.08
[18]; first compound 0.253 µM
  relative viability: 1.13
[18]; first compound 0.8 µM
  relative viability: 1.07
[18]; first compound 2.53 µM
  relative viability: 0.87
[18]; first compound 8 µM
  relative viability: 1.14
[19]; first compound 0.08 µM
  relative viability: 0.449
[19]; first compound 0.253 µM
  relative viability: 0.528
[19]; first compound 0.8 µM
  relative viability: 0.405
[19]; first compound 2.53 µM
  relative viability: 0.485
[19]; first compound 8 µM
  relative viability: 0.478
[20]; first compound 0.08 µM
  relative viability: 0.442
[20]; first compound 0.253 µM
  relative viability: 0.441
[20]; first compound 0.8 µM
  relative viability: 0.397
[20]; first compound 8 µM
  relative viability: 0.429

## Oc1nc(-c2ccc(C(F)(F)F)cc2)nc2c1CSCC2 [XAV939] + C[C@]1(O)C[C@@H](c2nc(-c3ccc4ccc(-c5ccccc5)nc4c3)c3c(N)nccn32)C1 [Linsitinib] (partner 1 µM)
[1]; first compound 0.08 µM
  relative viability: 1.02
[1]; first compound 0.253 µM
  relative viability: 1.12
[1]; first compound 0.8 µM
  relative viability: 1.08
[1]; first compound 2.53 µM
  relative viability: 1.08
[2]; first compound 0.08 µM
  relative viability: 1
[2]; first compound 0.253 µM
  relative viability: 0.98
[2]; first compound 0.8 µM
  relative viability: 0.868
[2]; first compound 2.53 µM
  relative viability: 0.561
[3]; first compound 0.08 µM
  relative viability: 1.07
[3]; first compound 0.253 µM
  relative viability: 0.776
[3]; first compound 0.8 µM
  relative viability: 0.831
[3]; first compound 2.53 µM
  relative viability: 0.623
[4]; first compound 0.08 µM
  relative viability: 0.868
[4]; first compound 0.253 µM
  relative viability: 0.705
[4]; first compound 0.8 µM
  relative viability: 0.711
[4]; first compound 2.53 µM
  relative viability: 0.511
[5]; first compound 0.08 µM
  relative viability: 0.981
[5]; first compound 0.253 µM
  relative viability: 0.843
[5]; first compound 0.8 µM
  relative viability: 1.05
[5]; first compound 2.53 µM
  relative viability: 0.784
[6]; first compound 0.08 µM
  relative viability: 0.626
[6]; first compound 0.253 µM
  relative viability: 0.5
[6]; first compound 0.8 µM
  relative viability: 0.605
[6]; first compound 2.53 µM
  relative viability: 0.596
[7]; first compound 0.08 µM
  relative viability: 0.514
[7]; first compound 0.253 µM
  relative viability: 0.499
[7]; first compound 0.8 µM
  relative viability: 0.42
[7]; first compound 2.53 µM
  relative viability: 0.457
[8]; first compound 0.08 µM
  relative viability: 0.903
[8]; first compound 0.253 µM
  relative viability: 0.842
[8]; first compound 0.8 µM
  relative viability: 0.996
[8]; first compound 2.53 µM
  relative viability: 0.911
[9]; first compound 0.08 µM
  relative viability: 1.2
[9]; first compound 0.253 µM
  relative viability: 1.01
[9]; first compound 0.8 µM
  relative viability: 1.07
[9]; first compound 2.53 µM
  relative viability: 0.871
[10]; first compound 0.08 µM
  relative viability: 0.816
[10]; first compound 0.253 µM
  relative viability: 0.598
[10]; first compound 0.8 µM
  relative viability: 0.712
[10]; first compound 2.53 µM
  relative viability: 0.568
[11]; first compound 0.08 µM
  relative viability: 0.841
[11]; first compound 0.253 µM
  relative viability: 0.853
[11]; first compound 0.8 µM
  relative viability: 0.961
[11]; first compound 2.53 µM
  relative viability: 0.709
[12]; first compound 0.08 µM
  relative viability: 0.975
[12]; first compound 0.253 µM
  relative viability: 0.865
[12]; first compound 0.8 µM
  relative viability: 0.969
[12]; first compound 2.53 µM
  relative viability: 0.921
[13]; first compound 0.08 µM
  relative viability: 0.672
[13]; first compound 0.253 µM
  relative viability: 0.537
[13]; first compound 0.8 µM
  relative viability: 0.557
[13]; first compound 2.53 µM
  relative viability: 0.453
[14]; first compound 0.08 µM
  relative viability: 0.854
[14]; first compound 0.253 µM
  relative viability: 0.711
[14]; first compound 0.8 µM
  relative viability: 0.97
[14]; first compound 2.53 µM
  relative viability: 0.673
[16]; first compound 0.08 µM
  relative viability: 0.612
[16]; first compound 0.253 µM
  relative viability: 0.559
[16]; first compound 0.8 µM
  relative viability: 0.647
[16]; first compound 2.53 µM
  relative viability: 0.433
[21]; first compound 0.08 µM
  relative viability: 0.675
[21]; first compound 0.253 µM
  relative viability: 0.413
[21]; first compound 0.8 µM
  relative viability: 0.507
[21]; first compound 2.53 µM
  relative viability: 0.507
[17]; first compound 0.08 µM
  relative viability: 0.983
[17]; first compound 0.253 µM
  relative viability: 0.974
[17]; first compound 0.8 µM
  relative viability: 0.833
[17]; first compound 2.53 µM
  relative viability: 0.775
[18]; first compound 0.08 µM
  relative viability: 1.09
[18]; first compound 0.253 µM
  relative viability: 1.02
[18]; first compound 0.8 µM
  relative viability: 1.03
[18]; first compound 2.53 µM
  relative viability: 0.924
[19]; first compound 0.08 µM
  relative viability: 0.916
[19]; first compound 0.253 µM
  relative viability: 0.863
[19]; first compound 0.8 µM
  relative viability: 1
[19]; first compound 2.53 µM
  relative viability: 0.874
[20]; first compound 0.08 µM
  relative viability: 1.1
[20]; first compound 0.253 µM
  relative viability: 0.896
[20]; first compound 0.8 µM
  relative viability: 1.03
[20]; first compound 2.53 µM
  relative viability: 0.965
